The subject of assay [1] is Tyrosine-protein kinase JAK2 (Homo sapiens), O60674 [V617F]. Nature of the assay: (§1) Selectivity interaction (Kinase panel (Z-LYTE Assay)) EUB0001632a JAK2. The note with it: at 10 µM.
The target of assay [2] is Tyrosine-protein kinase JAK2 (Homo sapiens, UniProt O60674). The assay is described as §1. Conditions: at 10 µM.
Assay [3] has as its target Serine/threonine-protein kinase SIK2 (Homo sapiens) (UniProt Q9H0K1). The note with it: at 10 µM.
For assay [4], the target named is Ribosomal protein S6 kinase alpha-5 (Homo sapiens) (UniProt O75582). The note with it: at 10 µM.
Assay [5] deals with Ribosomal protein S6 kinase alpha-2 (Homo sapiens) (UniProt Q15349). The assay can be described thus: Selectivity interaction (KinomeScan (DiscoverX)) EUB0000595a RPS6KA2. The note with it: at 10 µM.
Assay [6] concerns the target T1, Phosphatidylinositol 5-phosphate 4-kinase type-2 alpha (Homo sapiens) (UniProt P48426).
T1 sequence (whole entry): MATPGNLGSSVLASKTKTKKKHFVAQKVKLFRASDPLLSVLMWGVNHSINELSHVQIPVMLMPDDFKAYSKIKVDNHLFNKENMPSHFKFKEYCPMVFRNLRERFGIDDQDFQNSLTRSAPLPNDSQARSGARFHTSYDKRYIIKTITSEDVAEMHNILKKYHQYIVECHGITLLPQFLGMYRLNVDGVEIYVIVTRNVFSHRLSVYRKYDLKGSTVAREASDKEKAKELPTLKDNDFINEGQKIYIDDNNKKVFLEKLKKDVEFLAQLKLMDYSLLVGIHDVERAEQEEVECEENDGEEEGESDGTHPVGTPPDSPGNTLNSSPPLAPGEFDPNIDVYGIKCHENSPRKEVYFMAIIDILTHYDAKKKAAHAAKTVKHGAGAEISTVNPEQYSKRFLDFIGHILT
Nature of the assay: Selectivity interaction (ActivX KiNativ screen (ex vivo kinase selectivity in human PBMCs)) EUB0001619a PIP4K2A. The assay is classed as cell-based. The note with it: PBMC, at 1 µM.

Assay [7] concerns the target Serine/threonine-protein kinase mTOR (Homo sapiens, UniProt P42345). The assay can be described thus: Selectivity interaction (ActivX KiNativ screen (ex vivo kinase selectivity in human PBMCs)) EUB0001619a MTOR. Format: cell-based. The note with it: PBMC, at 1 µM.
In assay [8] the target is Maternal embryonic leucine zipper kinase (Homo sapiens) (UniProt Q14680). The note with it: at 10 µM.
Assay [9] concerns the target Ribosomal protein S6 kinase beta-1 (Homo sapiens, UniProt P23443). The assay can be described thus: Selectivity interaction (Kinase screening (Upstate/Millipore)) EUB0000604a RPS6KB1.
The target in assay [10] is Serine/threonine-protein kinase PRP4 homolog (Homo sapiens) (UniProt Q13523). The assay can be described thus: Selectivity interaction (ActivX KiNativ screen (kinase selectivity in THP-1 cell lysates)) EUB0000639a PRPF4. Format: subcellular. The note with it: lysate, at 0.01 µM.
Assay [11] concerns the target Serine/threonine-protein kinase MRCK beta (Homo sapiens) (UniProt Q9Y5S2). The assay can be described thus: Selectivity interaction (KinomeScan (DiscoverX)) EUB0000045b CDC42BPB.
Assay [12] has as its system Epidermal growth factor receptor (Homo sapiens), P00533 [UNDEFINED MUTATION]. The assay can be described thus: Selectivity interaction (KinomeScan (DiscoverX)) EUB0000045b EGFR. Conditions: at 10 µM.
Assay [13] deals with Protein kinase C theta type (Homo sapiens, UniProt Q04759). Nature of the assay: Selectivity interaction (KinomeScan (DiscoverX)) EUB0000045b PRKCQ.
Chain of Protein kinase C theta type (Q04759 whole entry, looked up): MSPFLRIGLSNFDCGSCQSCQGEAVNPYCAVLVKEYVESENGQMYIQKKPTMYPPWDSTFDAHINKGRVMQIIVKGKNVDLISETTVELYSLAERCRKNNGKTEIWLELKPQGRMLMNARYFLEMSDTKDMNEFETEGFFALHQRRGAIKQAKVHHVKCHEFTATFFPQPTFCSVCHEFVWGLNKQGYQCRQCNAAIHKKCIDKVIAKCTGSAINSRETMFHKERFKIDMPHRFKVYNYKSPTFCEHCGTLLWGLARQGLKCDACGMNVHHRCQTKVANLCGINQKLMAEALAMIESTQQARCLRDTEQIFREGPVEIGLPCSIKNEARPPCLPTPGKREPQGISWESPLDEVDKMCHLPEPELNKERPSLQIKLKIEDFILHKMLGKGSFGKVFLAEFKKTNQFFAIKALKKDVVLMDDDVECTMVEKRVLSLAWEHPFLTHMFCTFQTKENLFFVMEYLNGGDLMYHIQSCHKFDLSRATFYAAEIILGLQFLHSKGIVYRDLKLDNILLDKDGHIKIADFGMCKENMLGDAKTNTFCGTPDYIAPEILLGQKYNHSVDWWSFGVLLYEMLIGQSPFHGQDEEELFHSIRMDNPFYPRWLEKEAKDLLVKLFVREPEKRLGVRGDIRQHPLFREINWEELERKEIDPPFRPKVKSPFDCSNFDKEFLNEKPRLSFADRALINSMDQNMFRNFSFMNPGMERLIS
Assay [14] has as its target T2, Mitogen-activated protein kinase 15 (Homo sapiens) (UniProt Q8TD08).
T2 sequence (whole entry): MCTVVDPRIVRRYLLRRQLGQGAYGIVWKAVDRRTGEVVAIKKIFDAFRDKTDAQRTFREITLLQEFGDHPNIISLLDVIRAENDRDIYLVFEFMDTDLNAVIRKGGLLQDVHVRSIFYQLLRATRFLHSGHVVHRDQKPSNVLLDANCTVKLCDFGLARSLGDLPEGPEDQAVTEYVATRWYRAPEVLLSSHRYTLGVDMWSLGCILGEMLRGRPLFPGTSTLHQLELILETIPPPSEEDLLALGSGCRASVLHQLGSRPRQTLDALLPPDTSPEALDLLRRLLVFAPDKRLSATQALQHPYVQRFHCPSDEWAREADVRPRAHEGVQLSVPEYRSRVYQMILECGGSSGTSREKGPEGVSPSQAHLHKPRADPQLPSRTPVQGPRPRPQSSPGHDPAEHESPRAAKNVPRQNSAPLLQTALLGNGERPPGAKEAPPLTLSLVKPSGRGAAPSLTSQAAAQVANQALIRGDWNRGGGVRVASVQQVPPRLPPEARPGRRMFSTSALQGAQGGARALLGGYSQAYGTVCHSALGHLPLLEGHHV
The assay can be described thus: Selectivity interaction (Ambit KINOMEscan and KiNATiv profiling in Jurkat cells) EUB0000090b MAPK15. The assay is classed as cell-based. The note with it: at 1 µM.

The target of assay [15] is Wee1-like protein kinase (Homo sapiens) (UniProt P30291). The assay can be described thus: Selectivity interaction (KinomeScan (DiscoverX)) EUB0000655a WEE1. The note with it: at 10 µM.
For assay [16], the system named is Epidermal growth factor receptor (Homo sapiens), P00533 [L858R]. Nature of the assay: (§2) Selectivity interaction (KinomeScan (DiscoverX)) EUB0000655a EGFR. The note with it: at 10 µM.
The test system of assay [17] is Epidermal growth factor receptor (Homo sapiens), P00533 [L861Q]. Described as §2. Conditions: at 10 µM.
The test system of assay [18] is Epidermal growth factor receptor (Homo sapiens), P00533 [T790M]. Described as §2. Conditions: at 10 µM.
The test system of assay [19] is Epidermal growth factor receptor (Homo sapiens), P00533 [UNDEFINED MUTATION]. Described as §2. Conditions: at 10 µM.
Chain of Epidermal growth factor receptor (Homo sapiens), P00533 [UNDEFINED MUTATION] (P00533 whole entry, looked up, change not shown): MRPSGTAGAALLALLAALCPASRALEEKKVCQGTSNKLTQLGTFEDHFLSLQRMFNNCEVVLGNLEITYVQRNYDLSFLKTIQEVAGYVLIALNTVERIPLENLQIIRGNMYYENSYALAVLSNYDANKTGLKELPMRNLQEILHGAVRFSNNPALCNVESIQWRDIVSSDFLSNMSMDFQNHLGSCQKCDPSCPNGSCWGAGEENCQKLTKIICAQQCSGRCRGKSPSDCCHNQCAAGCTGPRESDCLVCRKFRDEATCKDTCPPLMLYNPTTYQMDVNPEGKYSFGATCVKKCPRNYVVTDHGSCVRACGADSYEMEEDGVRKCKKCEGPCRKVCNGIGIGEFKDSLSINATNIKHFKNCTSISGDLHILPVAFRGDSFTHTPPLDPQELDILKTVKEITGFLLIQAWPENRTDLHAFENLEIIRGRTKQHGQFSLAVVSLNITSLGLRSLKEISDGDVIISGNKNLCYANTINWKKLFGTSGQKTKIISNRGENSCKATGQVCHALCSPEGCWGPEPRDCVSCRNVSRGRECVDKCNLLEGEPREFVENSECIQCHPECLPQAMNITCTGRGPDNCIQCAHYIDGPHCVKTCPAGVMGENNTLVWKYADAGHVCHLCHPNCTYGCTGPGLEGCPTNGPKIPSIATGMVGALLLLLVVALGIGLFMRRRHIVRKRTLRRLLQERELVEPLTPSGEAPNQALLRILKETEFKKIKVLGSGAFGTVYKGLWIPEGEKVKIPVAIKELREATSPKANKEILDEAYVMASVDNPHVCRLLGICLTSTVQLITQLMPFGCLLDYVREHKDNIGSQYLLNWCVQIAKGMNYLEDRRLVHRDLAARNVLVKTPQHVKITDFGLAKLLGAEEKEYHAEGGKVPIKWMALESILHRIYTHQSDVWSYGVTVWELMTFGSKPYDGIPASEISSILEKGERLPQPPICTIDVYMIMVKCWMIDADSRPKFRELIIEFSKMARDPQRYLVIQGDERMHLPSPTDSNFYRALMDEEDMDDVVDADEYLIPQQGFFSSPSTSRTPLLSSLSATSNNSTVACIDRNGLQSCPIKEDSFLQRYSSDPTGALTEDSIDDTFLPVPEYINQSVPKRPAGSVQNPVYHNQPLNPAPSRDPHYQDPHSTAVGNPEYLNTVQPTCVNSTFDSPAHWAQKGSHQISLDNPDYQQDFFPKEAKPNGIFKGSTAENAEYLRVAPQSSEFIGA
Assay [20] deals with Epidermal growth factor receptor (Homo sapiens, UniProt P00533). The description is as §2. Conditions: at 10 µM.
Assay [21] has as its system Epidermal growth factor receptor (Homo sapiens), P00533 [L858R,T790M]. Described as §2. Conditions: at 10 µM.
For assay [22], the system named is Epidermal growth factor receptor (Homo sapiens), P00533 [G719S]. The assay is described as §2. Conditions: at 10 µM.
Chain of Epidermal growth factor receptor (Homo sapiens), P00533 [G719S] (P00533 whole entry G719S): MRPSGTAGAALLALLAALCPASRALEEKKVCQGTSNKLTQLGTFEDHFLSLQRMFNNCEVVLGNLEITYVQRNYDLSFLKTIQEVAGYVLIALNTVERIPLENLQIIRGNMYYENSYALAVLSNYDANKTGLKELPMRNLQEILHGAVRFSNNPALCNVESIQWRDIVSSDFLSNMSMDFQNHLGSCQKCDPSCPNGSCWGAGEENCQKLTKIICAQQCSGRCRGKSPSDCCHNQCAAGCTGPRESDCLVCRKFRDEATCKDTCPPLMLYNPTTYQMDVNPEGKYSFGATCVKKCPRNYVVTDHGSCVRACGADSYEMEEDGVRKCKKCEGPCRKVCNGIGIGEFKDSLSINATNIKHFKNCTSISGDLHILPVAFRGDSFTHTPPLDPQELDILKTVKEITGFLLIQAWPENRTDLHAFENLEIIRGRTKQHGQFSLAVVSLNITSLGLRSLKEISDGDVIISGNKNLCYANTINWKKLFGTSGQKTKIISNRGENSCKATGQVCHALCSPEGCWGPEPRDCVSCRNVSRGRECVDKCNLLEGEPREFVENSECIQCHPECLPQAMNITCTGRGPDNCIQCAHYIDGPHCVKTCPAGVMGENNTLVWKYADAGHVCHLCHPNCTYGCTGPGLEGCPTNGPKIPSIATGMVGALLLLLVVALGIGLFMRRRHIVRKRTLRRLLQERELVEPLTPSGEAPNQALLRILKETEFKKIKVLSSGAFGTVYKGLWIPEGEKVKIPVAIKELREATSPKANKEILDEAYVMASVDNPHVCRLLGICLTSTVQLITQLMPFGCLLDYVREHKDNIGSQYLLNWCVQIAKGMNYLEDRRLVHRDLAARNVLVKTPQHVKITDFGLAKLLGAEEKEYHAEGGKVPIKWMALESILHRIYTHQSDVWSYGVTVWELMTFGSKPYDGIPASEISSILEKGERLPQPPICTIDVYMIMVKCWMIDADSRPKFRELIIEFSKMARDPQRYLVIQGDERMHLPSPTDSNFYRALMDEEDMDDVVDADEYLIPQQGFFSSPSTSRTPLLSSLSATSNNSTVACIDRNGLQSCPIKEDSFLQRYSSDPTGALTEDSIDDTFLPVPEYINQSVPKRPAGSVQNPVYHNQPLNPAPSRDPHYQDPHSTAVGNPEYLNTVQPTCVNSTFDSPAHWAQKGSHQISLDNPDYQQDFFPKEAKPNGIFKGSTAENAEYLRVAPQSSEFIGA
Assay [23] has as its system Epidermal growth factor receptor (Homo sapiens), P00533 [G719C]. Described as §2. The note with it: at 10 µM.
Assay [24] addresses Serine/threonine-protein kinase 10 (Homo sapiens) (UniProt O94804). Nature of the assay: Selectivity interaction (Kinase panel (KiNativ target engagement assay in Jurkat cells)) EUB0001635a STK10. The assay is classed as cell-based. Conditions: Selectivity number of off-targets 0.0, Selectivity number of targets 233.0, Source Knowledge https://www.sciencedirect.com/science/article/pii/S2451945619300674?via%3Dihub, at 1 µM.

Chain of Serine/threonine-protein kinase MRCK beta (Homo sapiens) (Q9Y5S2 whole entry): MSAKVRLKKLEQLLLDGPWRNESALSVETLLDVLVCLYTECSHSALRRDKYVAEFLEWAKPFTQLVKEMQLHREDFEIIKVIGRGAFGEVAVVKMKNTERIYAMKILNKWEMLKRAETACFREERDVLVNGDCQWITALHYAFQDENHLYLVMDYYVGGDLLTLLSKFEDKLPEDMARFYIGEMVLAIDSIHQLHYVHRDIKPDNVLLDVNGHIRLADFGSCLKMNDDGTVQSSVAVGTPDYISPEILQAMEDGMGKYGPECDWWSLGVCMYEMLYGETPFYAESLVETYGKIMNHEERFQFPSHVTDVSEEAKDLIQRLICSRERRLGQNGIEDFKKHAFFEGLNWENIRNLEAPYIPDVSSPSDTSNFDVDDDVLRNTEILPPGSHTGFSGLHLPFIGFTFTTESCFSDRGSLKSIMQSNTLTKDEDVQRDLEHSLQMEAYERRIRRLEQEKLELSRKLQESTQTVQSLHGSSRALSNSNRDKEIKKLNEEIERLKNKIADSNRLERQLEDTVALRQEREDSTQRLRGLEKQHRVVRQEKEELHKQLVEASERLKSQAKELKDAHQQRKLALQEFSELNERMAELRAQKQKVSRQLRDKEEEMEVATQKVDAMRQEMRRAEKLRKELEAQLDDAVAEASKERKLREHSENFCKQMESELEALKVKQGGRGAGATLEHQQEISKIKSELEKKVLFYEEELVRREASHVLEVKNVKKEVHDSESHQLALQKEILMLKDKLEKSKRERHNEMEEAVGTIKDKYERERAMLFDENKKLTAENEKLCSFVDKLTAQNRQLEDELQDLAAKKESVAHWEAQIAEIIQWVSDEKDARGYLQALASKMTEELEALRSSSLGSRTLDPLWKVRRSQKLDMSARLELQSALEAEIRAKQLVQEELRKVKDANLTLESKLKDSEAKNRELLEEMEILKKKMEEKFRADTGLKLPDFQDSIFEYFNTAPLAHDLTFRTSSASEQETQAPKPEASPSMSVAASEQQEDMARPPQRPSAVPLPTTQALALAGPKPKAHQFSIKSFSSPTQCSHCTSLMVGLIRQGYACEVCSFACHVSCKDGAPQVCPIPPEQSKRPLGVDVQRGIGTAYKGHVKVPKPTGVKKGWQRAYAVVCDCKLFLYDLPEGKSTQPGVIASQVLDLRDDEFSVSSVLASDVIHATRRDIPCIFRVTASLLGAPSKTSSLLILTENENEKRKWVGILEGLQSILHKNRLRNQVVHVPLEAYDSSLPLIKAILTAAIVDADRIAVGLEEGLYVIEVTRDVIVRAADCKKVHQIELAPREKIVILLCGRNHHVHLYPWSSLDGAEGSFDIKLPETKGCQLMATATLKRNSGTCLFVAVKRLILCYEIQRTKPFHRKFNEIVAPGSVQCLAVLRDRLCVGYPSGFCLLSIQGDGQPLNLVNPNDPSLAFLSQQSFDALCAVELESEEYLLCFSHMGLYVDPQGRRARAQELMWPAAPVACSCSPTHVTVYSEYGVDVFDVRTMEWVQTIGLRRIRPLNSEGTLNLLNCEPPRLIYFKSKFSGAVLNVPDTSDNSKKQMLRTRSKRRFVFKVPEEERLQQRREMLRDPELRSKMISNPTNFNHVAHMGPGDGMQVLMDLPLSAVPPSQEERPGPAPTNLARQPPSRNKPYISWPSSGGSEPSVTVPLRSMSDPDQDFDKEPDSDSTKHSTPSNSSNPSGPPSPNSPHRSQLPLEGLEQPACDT

With `Cn1cc(-n2cnc3c(NCc4nc5cc(Cl)c(Cl)cc5[nH]4)nc(N4CCOCC4)nc32)cn1`, the % of control in assay [1] is -2.15%; in assay [2], -3.18%.

Consider `COCC(=O)NC/C=C/c1ccc2ncnc(Nc3ccc(Oc4ccc(C)nc4)c(C)c3)c2c1` [CP-724714], for which the % of control in [3] is 84%; in assay [4], 98%; in assay [5], 78%.

For the compound `N#Cc1cccc(-c2c[nH]c3ncnc(N4CCOCC4)c23)c1`, the values for the % of inhibition in [6] and in assay [7] were 2% and 10%, respectively.

As for `Cc1cc([C@@H](C)Nc2ccccc2C(=O)O)c2nc(N3CCOCC3)cc(=O)n2c1` [AZD-6482], the % of control in [8] turned out to be 100%.

Compound `Cc1cnc(Nc2ccc(F)cc2Cl)nc1-c1c[nH]c(C(=O)N[C@H](CO)c2cccc(Cl)c2)c1` yielded a % of inhibition in assay [9] of 18%.

On to `CC[C@@H]1[C@H](F)C(=O)N[C@@H]1COc1nccc2cc(C(N)=O)c(OC)cc12` [ZIMLOVISERTIB], for which the % of inhibition in assay [10] turned out to be 11%.

As to `C=CC(=O)Nc1cc(-n2c(=O)ccc3cnc4ccc(-c5ccc(NS(C)(=O)=O)cc5)cc4c32)ccc1C`, the % of control was 100% in assay [11] (at 1 µM); 100% in [11] (at 10 µM); 62% in [12]; 100% in assay [13] (at 1 µM); 76% in assay [13] (at 10 µM).

For `CN(C)C/C=C/C(=O)Nc1ccc(C(=O)N2CCCC(Nc3ncc(Cl)c(-c4c[nH]c5ccccc45)n3)C2)cc1` (stereo unspecified), the % of control in [14] stood at 14%.

In the case of `CN(C)CCOc1ccc(-c2nc(-c3ccncc3)c(-c3ccc4c(c3)CC/C4=N\O)[nH]2)cc1`, the % of control in assay [15] worked out at 100%; in [16], 54%; in assay [17] it was 34%; in assay [18], 34%; in assay [19], 100%; in [20], 95%. Moreover, the results for the % of control in [21], in assay [22] and in [23] were 93%, 70% and 59%, respectively.

Turning to `C=CC(=O)Nc1ccc(C(=O)Nc2[nH]nc3c2CN(C(=O)N[C@H](CN(C)C)c2ccccc2)C3(C)C)cc1`, in assay [24], the % of engagement was -1.6%.
